Experimental data as given in US20150023887A1, “Antiperspirant Spray Devices and Compositions” (The Procter & Gamble Company, priority 2013, published 2015).

Source text: (§1) Solubility may be determined by measuring the amount of light transmittance (a light transmittance value) through a simple mixture of the non-volatile silicone fluid and liquid activation enhancer at the same weight/weight concentrations as in a final antiperspirant composition.
as §1, with “Solubility of a liquid activation enhancer in a non-volatile silicone” for “Solubility”, “(light” for “(a light”
The Spectronic Genesys 10 Vis utilizes a tungsten-halogen light source and has a spectral bandwidth of 5 nm, a wavelength range of 325 to 1100 nm, accuracy of ±1 nm and a repeatability of ±0.5 nm. Readouts include absorbance, transmittance and concentration. The spectrophotometer is set to 640 nm wavelength and the percent transmittance mode/readout. Polystyrene spectrometer cuvettes having a 1 cm optical light path and transmittance between ˜340 nm and ˜900 nm are used. One suitable example of a spectrometer cuvette is available from VWR International LLC under Catalog #97000-584 having a 2.5 to 4.5 ml capacity. The spectrophotometer is calibrated according to the manufacturer's instructions using a reference cuvette and composition comprised of just the non-volatile silicone fluid of interest. For example, if the test composition comprises 50 centistoke dimethicone and 15% w/w of isopropyl myristate, then the spectrometer is calibrated using a cuvette containing just 50 centistoke dimethicone. Sample cuvettes are filled sufficiently with a test composition of a non-volatile silicone fluid and liquid activation enhancer so that the light path of the spectrophotometer passes through the test composition in the cuvette. The sample cuvettes are shaken well just prior to taking a light transmittance reading.

| light transmittance value | Molecule | solubility in 50 centistoke dimethicone |
| --- | --- | --- |
| about 101% | CCCCCCCCCCCCCC(=O)OC(C)C [isopropyl myristate] | – |
| about 101% | CCCCCCCCCCCCCCCC(=O)OC(C)C [isopropyl palmitate] | – |
| about 100% | CCCCCCCCCCCCCCCCCC(=O)OCCCC [butyl stearate] | – |

More lines, now with the values behind:

| Molecule | light transmittance value | solubility in 50 centistoke dimethicone |
| --- | --- | --- |
| PPG-14 butyl ether | – | insoluble in 50 centistoke dimethicone across the 2% to 30% w/w concentration range |
| CCCCCCCCCCCCCC(C)C [isohexadecane] | about 100% | soluble in 50 centistoke dimethicone across the 2% to 30% w/w concentration range |
| mineral oil | – | soluble in 50 centistoke dimethicone at some (lower) concentrations |
| CCCCCCCCCCC(CO)CCCCCCCC (centres unmarked) [octyldodecanol] | – | soluble in the 50 centistoke dimethicone at some (lower) concentrations |
